Measurements: PMC3792051, “Polyenylpyrrole Derivatives Inhibit NLRP3 Inflammasome Activation and Inflammatory Mediator Expression by Reducing Reactive Oxygen Species Production and Mitogen-Activated Protein Kinase Activation” (PLoS ONE, 2013)

What was measured:
[1] = tested on: NLRP3 inflammasome in LPS+ATP-activated J774A.1 macrophages; test: NLRP3 inflammasome activation (IL-1β ELISA, caspase-1 p10 Western blot); type: cell-based, mouse; conditions: then ATP 5 mM 30 min
Method: The effects of the test samples on IL-1β, TNF-α, and IL-6 production were measured by ELISA according to the manufacturer’s instructions. In brief, 50 µl of biotinylated antibody reagent and 50 µl of supernatant were added to a stripwell plate precoated with anti-mouse IL-1β, TNF-α, or IL-6 antibodies, which was then incubated at room temperature for 2 h. After washing the plate three times with washing buffer, 100 µl of diluted streptavidin-HRP concentrate was added to each well and the plate incubated at room temperature for 30 min. The washing process was repeated, then 100 µl of a premixed tetramethylbenzidine substrate solution was added to each well and the plate incubated at room temperature in the dark for 30 min. After addition of 100 µl of stop solution to each well, the absorbance at 450 nm of each well was measured on a microplate reader.
Cells were washed twice with ice-cold phosphate-buffered saline (PBS) and lysed on ice for 5 min with lysis buffer (20 mM Tris-HCl, pH 7.5, 150 mM NaCl, 1 mM Na 2EDTA, 1 mM EGTA, 1% Triton X-100, 2.5 mM sodium pyrophosphate, 1 mM beta-glycerophosphate, 1 mM Na 3VO4, 1 µg/ml of leupeptin, 1 mM PMSF, protease inhibitor cocktail). The lysate was then centrifuged at 12,000 x g at 4 °C for 10 min and the pellet discarded. Proteins in the supernatant were separated by SDS-PAGE and electrotransferred to a PVDF membrane (EMD Millipore Corporation), which was then blocked by incubation for 1 h at room temperature in blocking buffer [(5% nonfat milk in PBS containing 0.1% Tween 20 (PBST)], then incubated for 2 h at room temperature with the primary antibody diluted in blocking buffer. After three washes in PBST, the membrane was incubated for 1 h at room temperature with an appropriate HRP-conjugated secondary antibody diluted in blocking buffer and developed using an enhanced chemiluminescence Western blot detection system (EMD Millipore Corporation).
ATP is known to activate the NLRP3 inflammasome in LPS-primed macrophages, leading to caspase-1 activation and IL-1β secretion. To examine whether compound 1h could affect NLRP3 inflammasome activation, the mouse macrophage cell line J774A.1 was used (RAW 264.7 macrophages are not suitable for studying the NLRP3 inflammasome). […]
Figure 4 Effect of compound 1h on NLRP3 inflammasome activation in LPS+ATP-activated J774A.1 macrophages. (A) J774A.1 macrophages (1 × 10^6/ml; 1 ml) or (B) peritoneal macrophages (1 × 10^5/ml; 1 ml) were incubated with 10-40 µM compound 1h or DMSO for 30 min, then LPS (1 µg/ml) was added and incubation continued for 5.5 h, then the cells were stimulated with ATP (5 mM) for an additional 30 min, then IL-1β in the culture medium was measured by ELISA (A, upper panel; B) and levels of active caspase-1 (p10) (A, lower panel) measured by Western blotting. In (C) and (D), J774A.1 macrophages (1 × 10^6/ml; 1ml) were incubated with LPS (1 µg/ml) for 5.5 h, then with 10-40 µM compound 1h or DMSO for 30 min in the continued presence of LPS, followed by stimulation with ATP (5 mM) for an additional 30 min, then IL-1β levels (C, upper panel) and IL-6 levels (D) in the culture medium were measured by ELISA and levels of active caspase-1 (p10) were measured by Western blotting (C, lower panel). […] In (E), J774A.1 macrophages (1 × 10^6/ml; 1 ml) were incubated for 30 min with DMSO or 1-40 µM compound 1h, then LPS (1 µg/ml) was added and incubation continued for 6 h, then expression of NLRP3 and proIL-1β was measured by Western blotting. […]

[2] = tested on: LPS-activated RAW 264.7 macrophages; test: MAPK (ERK1/2, JNK1/2, p38) phosphorylation by Western blot; type: cell-based, murine; conditions: RAW 264.7, 20 µM 30 min, LPS 1 µg/ml 0-60 min
Method: Cells were washed twice with ice-cold phosphate-buffered saline (PBS) and lysed on ice for 5 min with lysis buffer (20 mM Tris-HCl, pH 7.5, 150 mM NaCl, 1 mM Na 2EDTA, 1 mM EGTA, 1% Triton X-100, 2.5 mM sodium pyrophosphate, 1 mM beta-glycerophosphate, 1 mM Na 3VO4, 1 µg/ml of leupeptin, 1 mM PMSF, protease inhibitor cocktail). The lysate was then centrifuged at 12,000 x g at 4 °C for 10 min and the pellet discarded. […]
Figure 5 Effect of compound 1h on ROS production and MAPK phosphorylation in LPS-activated macrophages. In (A), RAW 264.7 macrophages (5 × 10^5/ml; 1 ml) were incubated for 30 min with compound 1h (20 µM), N-acetyl cysteine (NAC; 10 mM), or DMSO (vehicle), then 2’, 7’-dichlorofluorescein diacetate (2 µM) was added for 30 min, followed by LPS (1 µg/ml) stimulation for the indicated time, then ROS levels were measured by detection of the mean fluorescence intensity (MFI) of the fluorophore carboxyl-DCF and expressing this value relative to that at time zero. In (B), RAW 264.7 macrophages (5 × 10^5/ml; 1 ml) were incubated for 30 min with compound 1h (20 µM) or DMSO, then LPS (1 µg/ml) was added and incubation continued for 0-60 min, then phosphorylation of ERK1/2, JNK1/2, and p38 was analyzed by Western blotting and expressed relative to actin expression and as a fold increase compared to the control group at 0 time. […]

[3] = tested on: ATP-activated LPS-primed J774A.1 macrophages; test: PKC-α and AKT phosphorylation by Western blot; type: cell-based, murine
Method: In (C), LPS-primed J774A.1 macrophages (1 × 10^6/ml; 1 ml) were incubated for 30 min with 20 µM compound 1h or DMSO (vehicle) followed by ATP (5 mM) stimulation for 0-60 min, then phosphorylation of PKC-α was analyzed by Western blotting and expressed as the fold increase measured as the intensity of the PKC-α band divided by that of the actin band normalized to the corresponding value for DMSO at 0 minutes.

[4] = J774A.1, LPS 5.5 h first, then compound 10-40 µM 30 min
[5] = J774A.1, compound 10-40 µM 30 min before LPS 5.5 h

O=c1cc(O)cc(/C=C/C=C/C=C/C=C/c2[nH]ccc2Cl)o1 [compound 1h]
Caspase-1 activation (p10) [1, 4]: not caspase-1 activation
IL-1β secretion [1, 4]: inhibited the LPS-induced increase in IL-1β secretion
IL-6 secretion [1, 4]: had no significant effect on IL-6 secretion
Generation of active caspase-1 (p10) [1, 5]: significantly inhibited
IL-1β secretion [1, 5]: significantly inhibited IL-1β secretion
Phosphorylation of ERK1/2, JNK1/2 and p38 [2]: inhibited phosphorylation of all 3 MAPKs
ATP-induced PKC-α phosphorylation ([3]; LPS-primed J774A.1, 20 µM 30 min, ATP 5 mM 0-60 min): significant inhibition of ATP-induced PKC-α phosphorylation at 20-60 min
ATP-induced AKT phosphorylation ([3]; LPS-primed macrophages (data not shown)): did not reduce ATP-induced AKT phosphorylation
